Among the data in patent US11578079B2, “SUMO inhibitor compounds and uses thereof” (CITY OF HOPE, priority 2018, dated 2023) are SUMO values, retold here.

Molecules are shown by their SMILES.

In this assay the target is T1, SUMO (Homo sapiens, UniProt Q9UBT2).
T1 sequence (Q9UBT2 1-640): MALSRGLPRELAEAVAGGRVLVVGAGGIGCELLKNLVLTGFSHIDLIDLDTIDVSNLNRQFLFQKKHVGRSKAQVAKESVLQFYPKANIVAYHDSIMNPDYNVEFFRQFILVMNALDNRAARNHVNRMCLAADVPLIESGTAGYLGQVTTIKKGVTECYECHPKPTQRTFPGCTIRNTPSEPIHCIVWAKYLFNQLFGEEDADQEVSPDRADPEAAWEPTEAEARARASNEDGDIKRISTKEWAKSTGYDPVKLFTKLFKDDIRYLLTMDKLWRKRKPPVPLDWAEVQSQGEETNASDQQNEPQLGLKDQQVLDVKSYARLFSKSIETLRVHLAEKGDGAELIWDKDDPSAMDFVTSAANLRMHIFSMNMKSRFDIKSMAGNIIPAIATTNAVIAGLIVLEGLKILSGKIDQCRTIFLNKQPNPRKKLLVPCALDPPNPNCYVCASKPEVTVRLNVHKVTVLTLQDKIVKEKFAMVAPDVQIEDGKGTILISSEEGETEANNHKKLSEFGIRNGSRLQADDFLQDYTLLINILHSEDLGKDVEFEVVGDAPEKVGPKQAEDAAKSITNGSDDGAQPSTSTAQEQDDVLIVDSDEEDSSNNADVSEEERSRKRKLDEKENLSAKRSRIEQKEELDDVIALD
T1 sequence (Q9UBE0 1-346 partner): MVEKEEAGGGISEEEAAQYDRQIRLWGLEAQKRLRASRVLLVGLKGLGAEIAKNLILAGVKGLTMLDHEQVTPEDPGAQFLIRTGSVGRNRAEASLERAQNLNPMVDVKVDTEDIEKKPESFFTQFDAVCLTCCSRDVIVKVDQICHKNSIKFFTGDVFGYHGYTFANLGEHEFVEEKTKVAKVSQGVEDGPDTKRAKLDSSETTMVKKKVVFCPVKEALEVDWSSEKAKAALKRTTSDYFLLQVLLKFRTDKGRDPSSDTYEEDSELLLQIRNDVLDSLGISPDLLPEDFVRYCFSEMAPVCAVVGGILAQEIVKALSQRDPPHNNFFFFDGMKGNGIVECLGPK
The assay is described as follows: SUMO activity (Table I, biological activities). The class given is biochemical. More on the design: key: + (less active); ++ (active); +++ (most active).

Consider `COC(=O)C1=C(C(=O)OC)C2(C(Oc3ccccc3)c3ccc(CN4CCOCC4)cc3)C=CC1O2` (stereo not drawn) [Compound 495], for which the SUMO entry is recorded as “++”.
The value for `COC(=O)C1=C(C(=O)OC)C2(C(Cc3ccccc3)Oc3cccnc3)C=CC1O2` (stereo not drawn) [Compound 482] was “+”; that for `COC(=O)C1=C(C(=O)NC2CCN(C(=O)OC(C)(C)C)CC2)C2C=CC1(C(Cc1ccccc1)Nc1ccccc1)O2` (stereo not drawn) [Compound 198] was “+”.
For the compound `COC(=O)C1=C(C(=O)OC)C2(C(Cc3ccccc3C#N)Nc3ccccc3)C=CC1O2` (stereo not drawn) [Compound 660], the SUMO result is “++”.
Turning to `CCOC(=O)C1=C(C(=O)OCC)C2(C(Nc3ccccc3)c3ccc(CN4CCOCC4)cc3)C=CC1O2` (stereo not drawn) [Compound 659], the SUMO result is “++”.
Take `COC(=O)C1=C(C(=O)NCCCCCNC(=O)OCC2c3ccccc3-c3ccccc32)C2C=CC1(C(Cc1ccccc1)Nc1cc(F)cc(F)c1)O2` (stereo not drawn) [Compound 244]: the SUMO result is recorded as “+”.
The value for `COC(=O)C1=C(C(=O)OC)C2(C(Cc3ccccc3)Nc3ccccc3F)C=CC1O2` (stereo not drawn) [Compound 270] was “++”.
To `COC(=O)C1=C(C(N)=O)C2(C)C=CC1(C(Cc1ccccc1)Nc1ccccc1)O2` (stereo not drawn) [Compound 294] belongs “++”; to `CCCCC(Nc1cc(F)cc(F)c1)C12C=CC(O1)C(C(=O)NCCN(CC)CC)=C2C(=O)OC` (stereo not drawn) [Compound 398], “+”.
In the case of `COC(=O)C1=C(C(=O)OC)C2(C(Cc3ccccc3)Oc3ccccc3)C=CC1O2` (stereo not drawn) [Compound 271], the SUMO result was “++”.
Take `COC(=O)C1=C(C(=O)N(C)C)C2C=CC1(C(Cc1ccccc1)Nc1ccccc1)O2` (stereo not drawn) [Compound 154]: the SUMO entry was “+”.
To `CNC(=O)Cc1ccc(CC(Nc2ccccc2)C23C=CC(O2)C(C(=O)OC)=C3C(=O)OC)cc1` (stereo not drawn) [Compound 665] belongs “++”; to `COC(=O)C1=C(C(=O)OC)C2(C(Cc3ccc(Nc4ccccc4)cc3)Nc3ccccc3)C=CC1O2` (stereo not drawn) [Compound 683], “+”.
The value for `COC(=O)C1=C(C(=O)NC2CCN(C)CC2)C2CCC1(C(Cc1ccccc1)Nc1cc(F)cc(F)c1)O2` (stereo not drawn) [Compound 303] was “++”; that for `COC(=O)C1=C(C(=O)Nc2ccn(C)n2)C2C=CC1(C(Cc1ccccc1)Nc1ccccc1)O2` (stereo not drawn) [Compound 197] was “++”; that for `COC(=O)C1=C(C(=O)OC)C2(C(Cc3ccccc3Cl)Nc3cccc(Oc4ccccc4)c3)C=CC1O2` (stereo not drawn) [Compound 672] was “++”.
Take `COC(=O)C1=C(C(=O)N2CCN(C)CC2)C2C=CC1(C(Cc1ccccc1)Nc1ccccc1)O2` (stereo not drawn) [Compound 164]: the SUMO result is reported as “+”.
The value for `COC(=O)C1=C(C(=O)OC)C2(C(Cc3ccc(OC)cc3)Nc3ccccc3)C=CC1O2` (stereo not drawn) [Compound 633] was “+++”; that for `C#CCNC(=O)C1=C(C(=O)OC)C2(C(Cc3ccccc3)Nc3ccccc3)C=CC1O2` (stereo not drawn) [Compound 155] was “++”; that for `COC(=O)C1=C(C(=O)NC(C)C)C2C=CC1(C(Cc1ccccc1)Nc1ccccc1)O2` (stereo not drawn) [Compound 153] was “++”.
For the compound `COC(=O)C1=C(C(=O)OC)C2(C(Cc3ccccc3C(F)(F)F)Nc3ccccc3)C=CC1O2` (stereo not drawn) [Compound 658], the SUMO entry was “++”.
The value for `CCCNC(=O)C1=C(C(=O)OC)C2(C(Cc3ccccc3)Nc3ccccc3)C=CC1O2` (stereo not drawn) [Compound 150] was “++”.
In the case of `COC(=O)C1=C(C(=O)OC)C2(C(Cc3ccccc3)Nc3c(F)cccc3F)C=CC1O2` (stereo not drawn) [Compound 228], the SUMO entry is recorded as “++”.
In the case of `COC(=O)C1=C(C(=O)OC)C2(C(Cc3ccc(C4CC4)cc3)Nc3ccccc3)C=CC1O2` (stereo not drawn) [Compound 693], the SUMO result is on record as “++”.
As to `Cc1ccc(S(=O)(=O)C2=CC3(C(Cc4ccccc4)Nc4ccccc4)C=CC2(C)O3)cc1` (stereo not drawn) [Compound 532], the SUMO result is reported as “+”.
The value for `COC(=O)C1=C(C(=O)Nc2ccc(C)c(F)c2)C2C=CC1(C(Cc1ccccc1)Oc1ccccc1)O2` (stereo not drawn) [Compound 347] was “++”.
For the compound `CCOC(=O)C1=C(C(=O)OCC)C2(C(Cc3ccccc3)Nc3c(F)cccc3F)C=CC1O2` (stereo not drawn) [Compound 230], the SUMO result is listed as “++”.
The value for `CNC(=O)C1=C(C(=O)OC)C2(C(Cc3ccccc3)Nc3ccccc3)C=CC1(C)O2` (stereo not drawn) [Compound 293] was “++”; that for `O=C(O)C1=C(C(=O)Nc2ccccc2)C2C=CC1(C(Cc1ccccc1)Nc1ccccc1)O2` (stereo not drawn) [Compound 174] was “+”; that for `COC(=O)C1=C(C(=O)Nc2ccc(OC(F)(F)F)cc2)C2C=CC1(C(Cc1ccccc1)Nc1ccccc1)O2` (stereo not drawn) [Compound 196] was “+”.
`COC(=O)C1=C(C(=O)NCCN(C)C)C2CCC1(C(Cc1ccccc1Cl)Nc1ccccc1)O2` (stereo not drawn) [Compound 691]: the SUMO result was “++”.
The value for `COC(=O)C1=C(C(=O)Nc2ccc(C)c(F)c2)C2C=CC1(C(Cc1ccccc1)Oc1cccnc1)O2` (stereo not drawn) [Compound 484] was “+”.
For the compound `COC(=O)C1=C(C(=O)Nc2ccc(Oc3ccccc3)cc2)C2C=CC1(C(Cc1ccccc1)Nc1ccccc1)O2` (stereo not drawn) [Compound 296], the SUMO entry was “++”.
Regarding `COC(=O)C1=C(C(=O)NCCO)C2C=CC1(C(Cc1ccccc1)Nc1ccccc1)O2` (stereo not drawn) [Compound 152], the SUMO entry was “++”.
The value for `COC(=O)C1=C(C(=O)OC)C2(C(Cc3ccc(-c4ccccc4)cc3)Nc3ccccc3)C=CC1O2` (stereo not drawn) [Compound 677] was “++”; that for `COC(=O)C1=C(C(=O)OC)C2(C(Cc3ccc(OC(C)C)cc3)Nc3ccccc3)C=CC1O2` (stereo not drawn) [Compound 650] was “++”; that for `COC(=O)C1=C(C(=O)OC)C2(C(Cc3ccccc3Cl)Oc3ccccc3)C=CC1O2` (stereo not drawn) [Compound 687] was “+”.
To `COC(=O)C1=C(C(=O)NCCNC(=O)OC(C)(C)C)C2C=CC1(C(Cc1ccccc1)Nc1ccc(F)cc1)O2` (stereo not drawn) [Compound 539] belongs “++”; to `COC(=O)C1=C(C(=O)Nc2ccc(C)c(F)c2)C2CCC1(C(Cc1ccccc1Cl)Nc1ccccc1)O2` (stereo not drawn) [Compound 692], “+”.
The value for `COC(=O)C1=C(C(=O)OC2CCN(C)CC2)C2C=CC1(C(Cc1ccccc1)Nc1ccccc1)O2` (stereo not drawn) [Compound 286] was “++”; that for `COC(=O)C1=C(C(=O)OC)C2(C(Nc3ccccc3)c3ccc4cc(OC)ccc4c3)C=CC1O2` (stereo not drawn) [Compound 653] was “++”; that for `COC(=O)C1=C(C(=O)OC)C2(C(Cc3ccccc3)N(C)c3ccccc3)C=CC1O2` (stereo not drawn) [Compound 236] was “++”.
On to `COC(=O)C1=C(C(=O)OC)C2(C(Cc3ccccc3Cl)Nc3cccc(OCc4ccccc4)c3)C=CC1O2` (stereo not drawn) [Compound 674], for which the SUMO entry is on record as “++”.
In the case of `CCCCC(Nc1ccccc1)C12C=CC(O1)C(C(=O)OC)=C2C(=O)OC` (stereo not drawn) [Compound 210], the SUMO result was “+++”.
The value for `COC(=O)C1=C(C(=O)OC)C2(C(Nc3ccccc3)c3ccc(CN4CCOCC4)cc3)C=CC1O2` (stereo not drawn) [Compound 413] was “+”.
Consider `COC(=O)C1=C(C(=O)OC)C2(C(CCCN3CCOCC3)Nc3ccccc3)C=CC1O2` (stereo not drawn) [Compound 193], for which the SUMO entry is recorded as “+”.
To `COC(=O)C1=C(C(=O)OC)C2(C(Cc3ccccc3Cl)Nc3ccc(Oc4ccccc4)cc3)C=CC1O2` (stereo not drawn) [Compound 678] belongs “+”; to `COC(=O)C1=C(C(=O)NC2CCN(C(=O)OC(C)(C)C)CC2)C2C=CC1(C(Cc1ccccc1)Nc1cc(F)cc(F)c1)O2` (stereo not drawn) [Compound 255], “+”.
To `COC(=O)C1=C(C(N)=O)C2C=CC1(C(Cc1ccccc1)Nc1cc(F)cc(F)c1)O2` (stereo not drawn) [Compound 207] belongs “+”; to `CCc1ccc(CC(Nc2ccccc2)C23C=CC(O2)C(C(=O)OC)=C3C(=O)OC)cc1` (stereo not drawn) [Compound 655], “++”; to `COC(=O)C1=C(C(=O)OC)C2(C(Cc3ccc(C(C)C)cc3)Nc3ccccc3)C=CC1O2` (stereo not drawn) [Compound 670], “++”.
The value for `COC(=O)C1=C(C(=O)Nc2ccc(C)c(F)c2)C2C=CC1(C1OCCO1)O2` (stereo not drawn) [Compound 485] was “+”; that for `COC(=O)C1=C(C(=O)OC)C2(C(Cc3ccccc3Br)Nc3ccccc3)C=CC1O2` (stereo not drawn) [Compound 667] was “++”; that for `NC(=O)C1=C(C(N)=O)C2(C(Cc3ccccc3)Nc3ccccc3)C=CC1O2` (stereo not drawn) [Compound 202] was “+”.
Consider `CCOC(=O)C1=C(C(=O)OCC)C2(C(Cc3ccccc3)Nc3cc(F)cc(F)c3)C=CC1O2` (stereo not drawn) [Compound 234], for which the SUMO entry is “++”.
As for `CCCCC(Nc1cc(F)cc(F)c1)C12C=CC(O1)C(C(=O)NCCN(C)C)=C2C(=O)OC` (stereo not drawn) [Compound 397], the SUMO entry was “+”.
Take `COC(=O)C1=C(C(=O)OC)C2(C(Cc3ccccc3F)Nc3cc(F)cc(F)c3)C=CC1O2` (stereo not drawn) [Compound 454]: the SUMO result is recorded as “+++”.
